We go through 49 molecules from patent US9732075B2, “Benzimidazole-proline derivatives” (IDORSIA PHARMACEUTICALS LTD, priority 2012, dated 2017).

For orientation: pIC50 means the negative decadic logarithm of the IC50, by convention in mol/L.

pIC50: −log10 of the molar value.

One assay addresses human orexin-1 receptor (Homo sapiens (Human), UniProt O43613). Description: In vitro assay: intracellular calcium measurements (FLIPR), antagonistic activity. The settings on record: CHO cells expressing human orexin-1 receptor, orexin-A agonist, geometric mean, read-out: IC50 Ox1. Format: cell-based. An outline of the steps:
(§1)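 Dye-loaded CHO cells expressing either human orexin receptor are exposed to test antagonist for 120 min, then stimulated with orexin-A at 3 nM.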
Background: A change in cytosolic calcium serves as a functional read-out for many receptors and channels.

The next assay deals with human orexin-2 receptor (Homo sapiens (Human), UniProt O43614). The assay is described as above. Format: cell-based. The settings on record: CHO cells expressing human orexin-2 receptor, orexin-A agonist, geometric mean, read-out: IC50 Ox2. An outline of the steps:
as §1

Chain of human orexin-2 receptor (O43614 whole entry): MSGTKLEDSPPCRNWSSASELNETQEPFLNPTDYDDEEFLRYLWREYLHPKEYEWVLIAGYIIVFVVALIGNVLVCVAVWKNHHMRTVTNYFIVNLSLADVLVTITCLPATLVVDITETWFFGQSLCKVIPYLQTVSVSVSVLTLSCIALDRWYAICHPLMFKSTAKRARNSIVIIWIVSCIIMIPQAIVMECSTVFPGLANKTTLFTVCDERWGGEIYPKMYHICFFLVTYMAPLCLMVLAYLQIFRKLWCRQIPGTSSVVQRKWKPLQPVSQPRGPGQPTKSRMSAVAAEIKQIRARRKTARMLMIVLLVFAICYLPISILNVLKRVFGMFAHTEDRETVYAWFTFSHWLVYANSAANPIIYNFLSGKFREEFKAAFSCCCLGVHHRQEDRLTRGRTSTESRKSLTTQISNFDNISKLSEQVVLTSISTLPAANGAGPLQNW
Chain of human orexin-1 receptor (O43613 whole entry): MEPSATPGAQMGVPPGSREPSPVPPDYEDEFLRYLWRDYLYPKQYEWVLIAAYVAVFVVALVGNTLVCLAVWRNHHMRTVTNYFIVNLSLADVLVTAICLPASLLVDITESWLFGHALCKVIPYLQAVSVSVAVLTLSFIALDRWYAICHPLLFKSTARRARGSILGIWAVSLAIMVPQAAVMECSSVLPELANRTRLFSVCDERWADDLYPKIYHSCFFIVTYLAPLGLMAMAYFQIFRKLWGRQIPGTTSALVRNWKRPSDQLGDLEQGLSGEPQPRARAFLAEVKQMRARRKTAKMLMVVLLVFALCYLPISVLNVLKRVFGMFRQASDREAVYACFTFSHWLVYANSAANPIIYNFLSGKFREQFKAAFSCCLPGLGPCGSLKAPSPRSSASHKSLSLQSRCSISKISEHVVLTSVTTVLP

For `Cc1ccc(-c2ncccn2)c(C(=O)N2CCC[C@@]2(C)c2nc3cc(OC(F)(F)F)ccc3[nH]2)c1` [Ex. 5.281], the pIC50 at human orexin-1 receptor was 7.47; on human orexin-2 receptor, 6.42.

Take `Cc1ccc(-c2ncccn2)c(C(=O)N2CCC[C@@]2(C)c2nc3cc(F)c(Br)cc3[nH]2)c1` [Ex. 5.282]: the pIC50 at human orexin-1 receptor is 7.33; on human orexin-2 receptor, 7.01.

`Cc1ccc(-c2ncccn2)c(C(=O)N2CCC[C@@]2(C)c2nc3cc(C)c(C)cc3[nH]2)c1` [Ex. 5.284]: the pIC50 on human orexin-1 receptor is 8.00; on human orexin-2 receptor it was 7.74.

Take `C[C@@]1(c2nc3cc(Cl)c(C(F)(F)F)cc3[nH]2)CCCN1C(=O)c1nc(-c2ccccc2)sc1-c1ccc(F)cc1` [Ex. 5.285]: the pIC50 at human orexin-1 receptor is 7.49; at human orexin-2 receptor it was 6.34.

As for `Cc1ccccc1-c1nc(C(=O)N2CCC[C@@]2(C)c2nc3cc(Cl)c(C(F)(F)F)cc3[nH]2)c(-c2ccc(F)cc2)s1` [Ex. 5.286], the pIC50 at human orexin-1 receptor is 7.40; on human orexin-2 receptor, 5.34.

On to `Cc1cccc(-c2nc(C(=O)N3CCC[C@@]3(C)c3nc4cc(Cl)c(C(F)(F)F)cc4[nH]3)c(-c3ccc(F)cc3)s2)c1` [Ex. 5.287], for which the pIC50 on human orexin-1 receptor is 7.28; at human orexin-2 receptor it was 5.93.

`Cc1ccc(-c2nc(C(=O)N3CCC[C@@]3(C)c3nc4cc(Cl)c(C(F)(F)F)cc4[nH]3)c(-c3ccc(F)cc3)s2)cc1` [Ex. 5.288]: the negative-log IC50 (pIC50) at human orexin-1 receptor is 7.42; at human orexin-2 receptor, 5.87.

With `C[C@@]1(c2nc3cc(Cl)c(C(F)(F)F)cc3[nH]2)CCCN1C(=O)c1nc(-c2ccccc2F)sc1-c1ccc(F)cc1` [Ex. 5.289], the pIC50 is 7.42 on human orexin-1 receptor and 6.27 on human orexin-2 receptor.

For the molecule `C[C@@]1(c2nc3cc(Cl)c(C(F)(F)F)cc3[nH]2)CCCN1C(=O)c1nc(-c2cccc(F)c2)sc1-c1ccc(F)cc1` [Ex. 5.290], the figures for the pIC50 at human orexin-1 receptor and at human orexin-2 receptor were 7.48 and 5.67, respectively.

For the molecule `C[C@@]1(c2nc3cc(Cl)c(C(F)(F)F)cc3[nH]2)CCCN1C(=O)c1nc(-c2ccc(F)cc2)sc1-c1ccc(F)cc1` [Ex. 5.291], the pIC50 on human orexin-1 receptor is 7.32; on human orexin-2 receptor, 6.46.

As for `COc1cccc(-c2nc(C(=O)N3CCC[C@@]3(C)c3nc4cc(Cl)c(C(F)(F)F)cc4[nH]3)c(-c3ccc(F)cc3)s2)c1` [Ex. 5.292], the negative-log IC50 (pIC50) at human orexin-1 receptor is 7.47; at human orexin-2 receptor, 6.17.

`COc1ccc(-c2nc(C(=O)N3CCC[C@@]3(C)c3nc4cc(Cl)c(C(F)(F)F)cc4[nH]3)c(-c3ccc(F)cc3)s2)cc1` [Ex. 5.293]: the pIC50 is 7.11 at human orexin-1 receptor and 5.39 on human orexin-2 receptor.

`C[C@@]1(c2nc3ccc(C(F)(F)F)cc3[nH]2)CCCN1C(=O)c1nc(-c2ccccc2F)sc1-c1ccc(F)cc1` [Ex. 5.294]: the pIC50 at human orexin-1 receptor is 7.41; on human orexin-2 receptor, 6.15.

Take `C[C@@]1(c2nc3cc(C(F)(F)F)ccc3[nH]2)CCCN1C(=O)c1cc(-c2cccc(C#N)c2)ccc1-n1nccn1` [Ex. 5.295]: the values for the pIC50 on human orexin-1 receptor and on human orexin-2 receptor were 8.10 and 6.60, respectively.

For the molecule `COc1cccc(-c2ccc(OC)c(F)c2C(=O)N2CCC[C@@]2(C)c2nc3c(C)c(Cl)ccc3[nH]2)c1` [Ex. 5.296], the figures for the pIC50 on human orexin-1 receptor and on human orexin-2 receptor were 7.60 and 7.51, respectively.

As for `COc1ccc(-c2ccc(OC)c(F)c2C(=O)N2CCC[C@@]2(C)c2nc3c(C)c(Cl)ccc3[nH]2)cc1` [Ex. 5.297], the figures for the pIC50 on human orexin-1 receptor and on human orexin-2 receptor were 7.39 and 7.24, respectively.

`COc1ccc(-c2ccccc2F)c(C(=O)N2CCC[C@@]2(C)c2nc3c(C)c(Cl)ccc3[nH]2)c1F` [Ex. 5.298]: the pIC50 on human orexin-1 receptor is 7.82; at human orexin-2 receptor, 7.68.

Consider `COc1ccc(-c2ccc(F)cc2)c(C(=O)N2CCC[C@@]2(C)c2nc3ccc(Cl)c(C)c3[nH]2)c1F` [Ex. 5.299], for which the pIC50 at human orexin-1 receptor is 7.77; on human orexin-2 receptor, 7.68.

As to `COc1ccc(-c2cccc(F)c2)c(C(=O)N2CCC[C@@]2(C)c2nc3ccc(Cl)c(C)c3[nH]2)c1F` [Ex. 5.300], the results for the pIC50 at human orexin-1 receptor and at human orexin-2 receptor were 8.00 and 7.74, respectively.

`COc1ccc(-c2cccc(C)c2)c(C(=O)N2CCC[C@@]2(C)c2nc3ccc(Cl)c(C)c3[nH]2)c1F` [Ex. 5.301]: the negative logarithm of the IC50 (pIC50) on human orexin-1 receptor is 7.62; at human orexin-2 receptor it was 7.80.

As to `COc1ccc(-c2ccc(C)cc2)c(C(=O)N2CCC[C@@]2(C)c2nc3ccc(Cl)c(C)c3[nH]2)c1F` [Ex. 5.302], the negative-log IC50 (pIC50) is 7.55 on human orexin-1 receptor and 7.38 at human orexin-2 receptor.

For `COc1ccc(-c2cccc(C(F)(F)F)c2)c(C(=O)N2CCC[C@@]2(C)c2nc3ccc(Cl)c(C)c3[nH]2)c1F` [Ex. 5.303], the pIC50 on human orexin-1 receptor was 7.54; at human orexin-2 receptor, 7.68.

Regarding `COc1ccc(-c2ccc3c(c2)OCO3)c(C(=O)N2CCC[C@@]2(C)c2nc3c(C)c(Cl)ccc3[nH]2)c1F` [Ex. 5.304], the figures for the pIC50 on human orexin-1 receptor and at human orexin-2 receptor were 7.72 and 7.07, respectively.

With `COc1ccc(-c2ccc(C(F)(F)F)cc2)c(C(=O)N2CCC[C@@]2(C)c2nc3ccc(Cl)c(C)c3[nH]2)c1F` [Ex. 5.305], the pIC50 was 7.46 on human orexin-1 receptor and 7.39 at human orexin-2 receptor.

Regarding `COc1ccc(-c2ccc(OC(F)(F)F)cc2)c(C(=O)N2CCC[C@@]2(C)c2nc3c(C)c(Cl)ccc3[nH]2)c1F` [Ex. 5.306], the pIC50 on human orexin-1 receptor is 7.48; on human orexin-2 receptor, 7.16.

For the molecule `COc1ccc(-c2cccc(C#N)c2)c(C(=O)N2CCC[C@@]2(C)c2nc3c(C)c(Cl)ccc3[nH]2)c1F` [Ex. 5.307], the pIC50 is 7.70 at human orexin-1 receptor and 7.31 at human orexin-2 receptor.

In the case of `COc1ccc(-c2ccc(C#N)cc2)c(C(=O)N2CCC[C@@]2(C)c2nc3c(C)c(Cl)ccc3[nH]2)c1F` [Ex. 5.308], the pIC50 at human orexin-1 receptor was 7.68; on human orexin-2 receptor, 6.91.

For `COc1ccc(-c2cccc(OC(F)(F)F)c2)c(C(=O)N2CCC[C@@]2(C)c2nc3c(C)c(Cl)ccc3[nH]2)c1F` [Ex. 5.309], the pIC50 on human orexin-1 receptor was 7.64; on human orexin-2 receptor, 7.68.

In the case of `Cc1cc(C(=O)N2CCC[C@@]2(C)c2nc3c(C)cc(Br)cc3[nH]2)c(-c2ccccc2)cn1` [Ex. 5.310], the values for the pIC50 at human orexin-1 receptor and on human orexin-2 receptor were 7.49 and 7.15, respectively.

Regarding `C=C1C[C@@H](c2nc3cc(OC)ccc3[nH]2)N(C(=O)c2nc(C)sc2-c2ccc(OC)cc2)C1` [Ex. 6.2], the pIC50 was 6.65 on human orexin-1 receptor and 7.77 at human orexin-2 receptor.

As to `C=C1C[C@@H](c2nc3cc(OC)ccc3[nH]2)N(C(=O)c2nc(C)sc2-c2ccccc2)C1` [Ex. 6.3], the pIC50 on human orexin-1 receptor is 6.61; on human orexin-2 receptor, 7.74.

On to `C=C1C[C@@H](c2nc3cc(OC)ccc3[nH]2)N(C(=O)c2nccnc2-c2ccc(C)cc2)C1` [Ex. 6.4], for which the pIC50 is 5.60 on human orexin-1 receptor and 6.93 at human orexin-2 receptor.

On to `C=C1C[C@@H](c2nc3cc(OC)ccc3[nH]2)N(C(=O)c2nc(C)sc2-c2ccc(Cl)cc2)C1` [Ex. 6.5], for which the pIC50 on human orexin-1 receptor was 6.67; at human orexin-2 receptor it was 7.72.

For `C=C1C[C@@H](c2nc3cc(OC)ccc3[nH]2)N(C(=O)c2nccnc2-c2cccc(C)c2)C1` [Ex. 6.6], the negative-log IC50 (pIC50) at human orexin-1 receptor was 6.32; at human orexin-2 receptor it was 7.28.

As to `C=C1C[C@@H](c2nc3cc(OC)ccc3[nH]2)N(C(=O)c2nc(C)sc2-c2cccc(C)c2)C1` [Ex. 6.7], the pIC50 at human orexin-1 receptor is 7.82; on human orexin-2 receptor, 8.52.

For the molecule `C=C1C[C@@H](c2nc3cc(OC)ccc3[nH]2)N(C(=O)c2nc(C)sc2-c2cccc(Cl)c2)C1` [Ex. 6.8], the pIC50 at human orexin-1 receptor was 7.68; at human orexin-2 receptor, 8.15.

Take `C=C1C[C@@H](c2nc3cc(OC)ccc3[nH]2)N(C(=O)c2nc(C)sc2-c2ccc(C)c(C)c2)C1` [Ex. 6.9]: the pIC50 is 8.15 at human orexin-1 receptor and 8.40 on human orexin-2 receptor.

As to `C=C1C[C@@H](c2nc3cc(OC)ccc3[nH]2)N(C(=O)c2nc(C3CC3)sc2-c2ccccc2)C1` [Ex. 6.10], the figures for the pIC50 on human orexin-1 receptor and on human orexin-2 receptor were 6.69 and 7.09, respectively.

Regarding `C=C1C[C@@H](c2nc3cc(OC)ccc3[nH]2)N(C(=O)c2cnc(C)nc2-c2cccc(C)c2)C1` [Ex. 6.11], the pIC50 was 6.87 on human orexin-1 receptor and 7.25 on human orexin-2 receptor.

For the molecule `C=C1C[C@@H](c2nc3cc(OC)ccc3[nH]2)N(C(=O)c2cc(C)ccc2-n2nccn2)C1` [Ex. 6.12], the pIC50 was 6.50 on human orexin-1 receptor and 8.22 on human orexin-2 receptor.

For `C=C1C[C@@H](c2nc3cc(OC)ccc3[nH]2)N(C(=O)c2ccccc2-n2nccn2)C1` [Ex. 6.13], the pIC50 at human orexin-1 receptor is 6.81; at human orexin-2 receptor, 7.77.

Turning to `C=C1C[C@@H](c2nc3cc(OC)ccc3[nH]2)N(C(=O)c2ccccc2-c2cccc(C)c2)C1` [Ex. 6.14], the results for the pIC50 at human orexin-1 receptor and at human orexin-2 receptor were 7.06 and 7.92, respectively.

Take `C=C1C[C@@H](c2nc3cc(OC)ccc3[nH]2)N(C(=O)c2ccccc2-c2ccc(C)cc2)C1` [Ex. 6.15]: the pIC50 at human orexin-1 receptor was 6.53; at human orexin-2 receptor, 7.43.

As for `C=C1C[C@@H](c2nc3cc(OC)ccc3[nH]2)N(C(=O)c2cnc(C)nc2-c2ccccc2)C1` [Ex. 6.16], the pIC50 on human orexin-1 receptor was 6.51; on human orexin-2 receptor, 6.82.

On to `C=C1C[C@@H](c2nc3cc(OC)ccc3[nH]2)N(C(=O)c2cncnc2-c2cccc(C)c2)C1` [Ex. 6.17], for which the values for the negative logarithm of the IC50 (pIC50) on human orexin-1 receptor and on human orexin-2 receptor were 6.51 and 7.33, respectively.

In the case of `C=C1C[C@@H](c2nc3cc(OC)ccc3[nH]2)N(C(=O)c2cc(F)ccc2-n2nccn2)C1` [Ex. 6.18], the pIC50 at human orexin-1 receptor is 5.82; at human orexin-2 receptor, 7.54.

Turning to `C=C1C[C@@H](c2nc3cc(OC)ccc3[nH]2)N(C(=O)c2c(F)cccc2-n2nccn2)C1` [Ex. 6.19], the pIC50 on human orexin-1 receptor was 5.82; on human orexin-2 receptor it was 7.21.

On to `C=C1C[C@@H](c2nc3cc(OC)ccc3[nH]2)N(C(=O)c2ccccc2-c2nc(C)no2)C1` [Ex. 6.20], for which the values for the pIC50 at human orexin-1 receptor and on human orexin-2 receptor were 5.76 and 7.31, respectively.

As to `C=C1C[C@@H](c2nc3cc(OC)ccc3[nH]2)N(C(=O)c2ccccc2-c2csc(C)n2)C1` [Ex. 6.21], the pIC50 at human orexin-1 receptor was 5.71; at human orexin-2 receptor, 7.12.
